From PubChem BioAssay AID248 (DTP/NCI, 2004)
Toxic doses and inconclusive results are not listed. Cut-off read from the data, not from the text of the source: active = T/C of 150% or more; inactive = T/C below 125%.

Tested on: L1210 leukemia ip in BDF1 mice, survival T/C
Test: NCI In Vivo Anticancer Drug Screen. Data for tumor model L1210 Leukemia (intraperitoneal) in B6D2F1 (BDF1) mice
Conditions: endpoint: mean survival time, higher = longer survival
How it was run: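 Tumor was transplanted into mice, which were then dosed with test compound or vehicle alone. Survival was recorded for each group, and the treated figure was expressed relative to the control figure.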

[1] = dose: 100.0 mg/kg/injection, schedule: Q04DX002 (ip), vehicle: saline with Tween-80
[2] = dose: 200.0 mg/kg/injection, schedule: Q04DX002 (ip), vehicle: saline with Tween-80
[3] = dose: 100.0 mg/kg/injection, schedule: Q01DX009 (ip), vehicle: Klucel (hydroxypropylcellulose) (HPC)
[4] = dose: 200.0 mg/kg/injection, schedule: Q01DX009 (ip), vehicle: Klucel (hydroxypropylcellulose) (HPC)
[5] = dose: 400.0 mg/kg/injection, schedule: Q01DX009 (ip), vehicle: Klucel (hydroxypropylcellulose) (HPC)
[6] = dose: 100.0 mg/kg/injection, schedule: Q04DX002 (ip), vehicle: Klucel (hydroxypropylcellulose) (HPC)
[7] = dose: 200.0 mg/kg/injection, schedule: Q04DX002 (ip), vehicle: Klucel (hydroxypropylcellulose) (HPC)
[8] = dose: 400.0 mg/kg/injection, schedule: Q04DX002 (ip), vehicle: Klucel (hydroxypropylcellulose) (HPC)
[9] = dose: 400.0 mg/kg/injection, schedule: Q01DX001 (ip), vehicle: saline
[10] = dose: 100.0 mg/kg/injection, schedule: Q04DX003 (ip), vehicle: saline
[11] = dose: 200.0 mg/kg/injection, schedule: Q04DX003 (ip), vehicle: saline
[12] = dose: 400.0 mg/kg/injection, schedule: Q04DX003 (ip), vehicle: saline
[13] = dose: 100.0 mg/kg/injection, schedule: Q01DX009 (ip), vehicle: saline with Tween-80
[14] = dose: 200.0 mg/kg/injection, schedule: Q01DX009 (ip), vehicle: saline with Tween-80

Measured: T/C

O=C(O)Cn1c(=O)ccc2ccccc21
inactive: [1] 91 % of control | [2] 95 % of control | dose: 400.0 mg/kg/injection, schedule: Q04DX002 (ip), vehicle: saline with Tween-80 95 % of control

Cc1ccc(S(=O)(=O)NC(Cc2ccccc2)C(=O)Nc2cccnc2)cc1 (centres undefined)
inactive: dose: 100.0 mg/kg/injection, schedule: Q01DX001 (ip), vehicle: Klucel (hydroxypropylcellulose) (HPC) 91 % of control | dose: 200.0 mg/kg/injection, schedule: Q01DX001 (ip), vehicle: Klucel (hydroxypropylcellulose) (HPC) 100 % of control | dose: 400.0 mg/kg/injection, schedule: Q01DX001 (ip), vehicle: Klucel (hydroxypropylcellulose) (HPC) 88 % of control

CCC1CC2c3cc(OC)c(OC)cc3CCN2CC1(O)Cc1ccncc1 (centres undefined)
inactive: dose: 100.0 mg/kg/injection, schedule: Q04DX003 (ip), vehicle: carboxymethylcellulose (CMC) 100 % of control | dose: 200.0 mg/kg/injection, schedule: Q04DX003 (ip), vehicle: carboxymethylcellulose (CMC) 104 % of control

Cc1ccc(NC(=O)C(Cl)(Cl)Cl)cc1Cl
inactive: [3] 112 % of control | [4] 106 % of control | [5] 109 % of control

N#CSCSC#N
inactive: dose: 3.12 mg/kg/injection, schedule: Q04DX003 (ip), vehicle: saline with Tween-80 98 % of control | dose: 6.25 mg/kg/injection, schedule: Q04DX003 (ip), vehicle: saline with Tween-80 96 % of control | dose: 12.5 mg/kg/injection, schedule: Q04DX003 (ip), vehicle: saline with Tween-80 90 % of control

CCN(CC)C(=O)Nc1ccc(C(=O)O)c(O)c1
inactive: dose: 100.0 mg/kg/injection, schedule: Q04DX003 (ip), vehicle: Klucel (hydroxypropylcellulose) (HPC) 95 % of control | dose: 200.0 mg/kg/injection, schedule: Q04DX003 (ip), vehicle: Klucel (hydroxypropylcellulose) (HPC) 90 % of control | dose: 400.0 mg/kg/injection, schedule: Q04DX003 (ip), vehicle: Klucel (hydroxypropylcellulose) (HPC) 90 % of control

COc1ccc(Cl)cc1NC(=O)C(Br)C(Br)c1ccccc1 (centres undefined)
inactive: [3] 100 % of control | [4] 97 % of control | [5] 86 % of control

COc1ccc(OC)c2[nH]c(-c3ccc(Cl)cc3)cc12
inactive: [6] 99 % of control | [7] 102 % of control | [8] 89 % of control

O=[N+]([O-])c1cccc(C2=NNC(c3cccc([N+](=O)[O-])c3)=NN2)c1
inactive: dose: 175.0 mg/kg/injection, schedule: Q01DX001 (ip), vehicle: saline 87 % of control | dose: 265.0 mg/kg/injection, schedule: Q01DX001 (ip), vehicle: saline 92 % of control | [9] 89 % of control | dose: 600.0 mg/kg/injection, schedule: Q01DX001 (ip), vehicle: saline 89 % of control

Cc1cccc(/C=N\NC(=O)CCCC(=O)N/N=C/c2cccc(C)n2)n1
inactive: dose: 50.0 mg/kg/injection, schedule: Q01DX001 (ip), vehicle: carboxymethylcellulose (CMC) 88 % of control | dose: 100.0 mg/kg/injection, schedule: Q01DX001 (ip), vehicle: carboxymethylcellulose (CMC) 90 % of control

Nc1ccc(CCc2[nH]c(N)nc(=S)c2-c2ccc(Cl)cc2)cc1
inactive: dose: 200.0 mg/kg/injection, schedule: Q04DX003 (ip), vehicle: saline with Tween-80 110 % of control | dose: 400.0 mg/kg/injection, schedule: Q04DX003 (ip), vehicle: saline with Tween-80 86 % of control

COc1c([N+](=O)[O-])cc(-c2ccccc2)cc1[N+](=O)[O-]
inactive: [10] 87 % of control | [11] 87 % of control | [12] 87 % of control

CCN(CC)Cc1ccccc1COC(=O)c1ccc(Cl)cc1
inactive: [6] 96 % of control | [7] 101 % of control | [8] 88 % of control

CCOc1ccc(NC(=O)COc2ccc(Cl)cc2Cl)cc1
inactive: [6] 89 % of control | [7] 101 % of control | [8] 92 % of control

CCOc1c(Br)cc(N=Cc2ccc(N(CCCl)CCCl)c(OC)c2)cc1Br
inactive: dose: 44.0 mg/kg/injection, schedule: Q01DX001 (ip), vehicle: carboxymethylcellulose (CMC) 120 % of control | dose: 150.0 mg/kg/injection, schedule: Q01DX001 (ip), vehicle: carboxymethylcellulose (CMC) 123 % of control | dose: 200.0 mg/kg/injection, schedule: Q01DX001 (ip), vehicle: carboxymethylcellulose (CMC) 104 % of control

CC(C)C1(O)C2C3CCC(C3)C2C(=O)C2C3CCC(C3)C21 (centres undefined)
inactive: dose: 50.0 mg/kg/injection, schedule: Q01DX009 (ip), vehicle: saline with Tween-80 96 % of control | [13] 93 % of control | [14] 93 % of control

O=[N+]([O-])c1cccc(OCCCc2ccccc2)c1
inactive: [13] 98 % of control | [14] 102 % of control | dose: 400.0 mg/kg/injection, schedule: Q01DX009 (ip), vehicle: saline with Tween-80 112 % of control

Cn1nnc(N)n1
inactive: dose: 100.0 mg/kg/injection, schedule: Q01DX001 (ip), vehicle: saline 98 % of control | [10] 102 % of control | dose: 200.0 mg/kg/injection, schedule: Q01DX001 (ip), vehicle: saline 100 % of control | [11] 96 % of control | [9] 100 % of control | [12] 102 % of control

O=C(CC(O)(C(F)(F)F)C(F)(F)F)c1ccccc1[N+](=O)[O-]
inactive: dose: 12.5 mg/kg/injection, schedule: Q01DX009 (ip), vehicle: DMSO 94 % of control | dose: 12.5 mg/kg/injection, schedule: Q04DX003 (ip), vehicle: DMSO 97 % of control | dose: 25.0 mg/kg/injection, schedule: Q01DX009 (ip), vehicle: DMSO 86 % of control | dose: 25.0 mg/kg/injection, schedule: Q04DX003 (ip), vehicle: DMSO 95 % of control | dose: 50.0 mg/kg/injection, schedule: Q04DX003 (ip), vehicle: DMSO 110 % of control | dose: 100.0 mg/kg/injection, schedule: Q04DX003 (ip), vehicle: DMSO 102 % of control

C/C(=C\COc1ccc(C)cc1)CC/C=C(\C)CCC1OC1(C)C (centres undefined)
inactive: dose: 50.0 mg/kg/injection, schedule: Q04DX002 (ip), vehicle: saline with Tween-80 108 % of control | [1] 108 % of control | [2] 92 % of control
